# According to patent publication US20030133972A1, “Targeted multivalent macromolecules” (priority 2000, published 2003):
# pIC50, pKd: −log10 of the molar value. Several values for one entry are separate records, joined by “and”; a condition that tells them apart may be missing. Equal entries are not always repeated.
# How the values were obtained:
# VEGFR1 = VEGFR1 (Homo sapiens, UniProt P17948); details: affinity of VEGFR1 for VEGF; cited from earlier work
# αvβ3 integrin = αvβ3 integrin (Homo sapiens, UniProt P05106+P06756); assay: Competitive integrin binding assay (PVs mixed with free ligand 10); details: read-out: concentration of free ligand 10 to achieve 50% inhibition of PV binding; against PV1 carrying the equivalent of 0.5 μM of 10 on its surface
# [1] = tested on: αvβ3 positive M21 Melanoma cells binding to vitronectin coated plates; assay: Cell adhesion inhibition assay on vitronectin coated plates; assay type: cell-based, human; details: 1 h incubation, PVs as equivalents of compound 10 on the surface, read-out: Cell Adhesion Assay IC50 (μM of 10 on NPs)
# [2] = tested on: collagen receptors (α2β1 integrins); assay: Cell adhesion assay on plates coated with collagen; assay type: cell-based
# Procedure: The cell adhesion assay was also performed with plates coated with collagen. Collagen binds to collagen receptors (α2β1 integrins) but not αvβ3 integrins. […] Without being bound by theory, it is believed that the observed inhibition of cell adhesion by PV-integrin agonist is due to the PV preventing interaction of collagen and its receptor by steric hindrance, due to the large size of the PV. Thus, not only does the PV targeted to a specific receptor bind to the receptor on the cell surface, but it blocks access to adjacent receptors due to its steric bulk.
# [3] = tested on: MS1 mouse endothelial pancreatic islet cells; assay: In vitro cell proliferation assay (crystal violet), endothelial cells; assay type: cell-based; details: murine endothelial cells
# Procedure: The effect of free doxorubicin or liposome-encapsulated doxorubicin on the cells was assayed calorimetrically by crystal violet staining method with slight modification. Mouse endothelial cells (ATCC# CRL-2279) and mouse melanoma cells (M2) were seeded in 96well flat-bottomed microtitre plates. The effect of the vesicles on cell proliferation was determined with cells near confluence (about 80%). The medium in each well was replaced with 100 ul of culture medium containing 250 ug/ml of vesicles containing doxorubicin. The mouse endothelial and melanoma cells were incubated for 1 hour at 37° C. and 5% CO2. After 1 hour incubation, the drug was removed, and compete medium that was lacking drug was added, and the cells were incubated for 48 hours at 37° C. and 5% CO2. The experiment was performed in duplicate. At the end of the incubation period, the cells were washed once with PBS and the cultures were fixed by 70% ethanol overnight. Next, the cells were stained with 100 ul of 0.1% crystal violet in 10% ethanol for 10 minutes at room temperature, and the cells were gently washed with water for 5 times. Next, 100 ul of 1% SDS was added to each well and the plates were placed on an orbital shaker for 15 minutes. After the crystal violet in cell membrane was removed with SDS, the plate was read at 590 nm. Finally, cell viability was evaluated as the mean value of optical density.
compound,measurement,setting,value
VEGF,pKd,VEGFR1,10.70 to 12.00
"4-[2-(3,4,5,6-Tetrahydropyrimidin-2-ylamino)ethyloxy]-benzoyl-2-(S)amino Ethylsulfonylamino-β-alanine [Compound 10]",pIC50,αvβ3 integrin,4.19
same,IC50,[1],64 µM and 63.9 µM
same,inhibition of cell adhesion to collagen coated plates,[2],neither the PV alone nor the agonist alone inhibited cell adhesion
"COc1cccc2c1C(=O)c1c(O)c3c(c(O)c1C2=O)C[C@@](O)(C(=O)CO)C[C@@H]3O[C@H]1C[C@H](N)[C@H](O)[C@H](C)O1 [Doxorubicin, doxorubicin]",effect on cell proliferation,[3],significant reductions in cell proliferation
